Reference: patent publication US9255268B2, “Methods for diagnosing and treating learning or mental disorders” (St. Jude Children's Research Hospital, priority 2012, dated 2016)

How the values were obtained:
[1] = system: LTP in Dgcr8+/− hippocampus; test: Rescue of LTP increase in Dgcr8+/− mice by presynaptic restoration of miRNA (AAV into CA3); assay type: in vivo, mouse; conditions: presynaptic (CA3) AAV expression; injected at 10 weeks, LTP measured at 16 weeks
Method: (§1) Acute transverse hippocampal slices (400 μm) were prepared according to known methods (Earls, et al. (2010) J. Neurosci. 30:15843-15855). Briefly, mouse brains were quickly removed and placed in cold (4° C.) dissecting artificial CSF (ACSF) containing 125 mM choline-Cl, 2.5 mM KCl, 0.4 mM CaCl2, 6 mM MgCl2, 1.25 mM NaH2PO4, 26 mM NaHCO3, and 20 mM glucose (285-295 mOsm), under 95% O2/5% CO2. After dissection, slices were incubated for 1 hour in ACSF containing 125 mM NaCl, 2.5 mM KCl, 2 mM CaCl2, 2 mM MgCl2, 1.25 mM NaH2PO4, 26 mM NaHCO3, and 10 mM glucose (285-295 mOsm), under 95% O2/5% CO2 at room temperature, and then transferred into submerged recording chambers and superfused (2-3 ml/min) with warm (30-32° C.) ACSF. Field recordings were performed using a setup with eight submerged recording chambers (Campden Instruments). Recordings in each chamber were performed independently. Field EPSPs (fEPSPs) from the CA1 stratum radiatum were recorded by using an extracellular glass pipette (3-5 MΩ) filled with ACSF. Schaffer collateral fibers in the stratum radiatum were stimulated with a bipolar tungsten electrode placed 200-300 μm away from the recording pipette. Stimulation intensities were chosen to produce an fEPSP with a 0.5 V/s slope. LTP was induced by three periods of 200 Hz tetanization delivered every 5 minutes. Each period of tetanization included 10 trains of 200 Hz stimulation delivered at the same intensity for 200 ms (40 stimulations) every 5 seconds.
In Vivo Viral Injections. Adeno-associated viruses (AAVs) were prepared by cloning chimeric hairpins of them iRNAs of interest with hsa-miR-30a into the pAAV-6P-SEWB vector (Christensen, et al. (2010) Front. Neural Circuits 3:16). […]

[2] = system: LTP at CA3-CA1 synapses in hippocampal slices; test: LTP of fEPSPs in acute hippocampal slices in the presence of the SERCA inhibitor thapsigargin; assay type: cell-based, mouse
Method: as §1, with “seconds. To test whether this increase in SERCA2 was necessary for enhanced LTP in Dgcr8^+/− mice, LTP was measured in the presence of the SERCA inhibitor thapsigargin (4 μM). […] In the absence of thapsigargin, the fEPSP slope increased measured six hours after induction was approximately 120% stronger than in the presence of thapsigargin in slices from Dgcr8^+/− mice (8 mice: 21 slices vehicle, 21 slices thapsigargin; p=0.014).” for “seconds.”

SERCA2 = test: Quantitative western blot of SERCA2 in hippocampus after AAV-miRNA injection into CA3; assay type: in vivo, mouse; conditions: wild-type mice; injection into CA3 at 10 weeks, hippocampi harvested at 16 weeks; versus GFP-only vector
Method: Western blots were performed according to known methods (Earls, et al. (2010) supra). For human brain tissue, dissected samples arrived from brain banks frozen on dry ice. Mouse tissue was dissected at 4° C. and prepared either as whole-tissue lysates or as crude P2 synaptosomal fractions. Synaptosomes were prepared using established methods (Gray & Whittaker (1962) J. Anat. 96:79-88). In brief, tissue was homogenized in 10 mM HEPES (pH 7.4)/0.32 M sucrose using a motorized glass-TEFLON homogenizer. To separate the P2 synaptosomal fraction, the homogenate was spun for 5 minutes at 800×g; the supernatant from three successive spins was then centrifuged for 20 minutes at 12,000×g. Tissue or synaptosomal pellets were lysed by freezing and thawing, subsequent syringe passage in ice-cold radioimmunoprecipitation assay buffer (50 mM Tris-HCl (pH 7.4), 1% NP-40, 0.25% sodium deoxycholate, 150 mM NaCl, 1 mM EDTA, and protease inhibitor cocktail tablets (Roche), and finally brief sonication. Concentrations of protein lysates were determined by the BCA assay (Thermo Scientific). A 25 μg sample of each protein extract was electrophoresed on a 10% SDS-PAGE gel, and protein was transferred onto polyvinylidene difluoride membranes (Invitrogen). The primary antibodies used were goat anti-SERCA2 (1:250, sc-8095; Santa Cruz Biotechnology) and mouse anti-β-actin (1:10000, A5316; Sigma-Aldrich). […]

Row | Compound | rescue of increased LTP in Dgcr8+/− hippocampus [1] | fEPSP slope increase in the absence versus the presence of thapsigargin ([2]; six hours after induction, 4 μM, slices from Dgcr8+/− mice, p=0.014) | LTP increase in Dgcr8+/− slices ([2]; thapsigargin 4 μM, slices from mature Dgcr8+/− mice) | LTP in slices from wild-type littermates ([2]; thapsigargin 4 μM, wild-type slices, p=0.974) | SERCA2 levels (quantitative western blot) (SERCA2)
1 | miR-98: microRNA; human mature sequence UGAGGUAGUAAGUUGUAUUGUU (SEQ ID NO:4) (UGAGGUAGUAAGUUGUAUUGUU; expressed or natural sequence; listed as Homo sapiens) | sufficient to rescue aberrant LTP | – | – | – | –
2 | C/C=C(/C)C(=O)O[C@H]1C(C)=C2[C@H]([C@@H]1OC(=O)CCCCCCC)[C@@](C)(OC(C)=O)C[C@H](OC(=O)CCC)[C@@]1(O)[C@H]2OC(=O)[C@@]1(C)O [thapsigargin] | – | approximately 120% | rescued the LTP increase | did not affect LTP | –
3 | miR-25: microRNA; human mature sequence CAUUGCACUUGUCUCGGUCUGA (SEQ ID NO:2) (CAUUGCACUUGUCUCGGUCUGA; expressed or natural sequence; listed as Homo sapiens) | sufficient to rescue the increased LTP | – | – | – | decreased
4 | miR-185: microRNA; human mature sequence UGGAGAGAAAGGCAGUUCCUGA (SEQ ID NO:6) (UGGAGAGAAAGGCAGUUCCUGA; expressed or natural sequence; listed as Homo sapiens) | sufficient to rescue the increased LTP | – | – | – | decreased
